Measured values published in patent publication US20110262508A1, “ANTIMICROBIAL COMPOSITIONS, FORMULATIONS AND USES THEREOF” (priority 2007, published 2011).
Where two headings read alike, the source gives them in different places. Peptide text beside a SMILES is read from it.

Columns and labels:
[1] = tested on: S. typhimurium strain AroA; format: cell-based
Method: Synthetic peptides were tested for their ability to inhibit bacterial growth in liquid culture. […] 19606, Acinetobacter spp. ATCC 17903, Acinetobacter spp. ATCC 19004, Escherichia coli strain BL21, S. aureus, S. typhimurium strain AroA, P. aeruginosa or P. pneumotropica. After 5-6 hours of shaking at 37° C., growth was measured as absorbance at 595 nm. As a control, cultures were grown in the presence of 0.1% acetonitrile (i.e., the concentration present in 10 μM peptide).

[2] = tested on: A. baumannii ATCC 19606, Acinetobacter spp. ATCC 17903, Acinetobacter spp. ATCC 19004, E. coli BL21, S. aureus, S. typhimurium AroA, P. aeruginosa, P. …; assay: Antibacterial spectrum over the serial dilution panel (Table 6); format: cell-based; settings: summary of Table 6
Outline: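 Peptides at about 5–10 μM were added to liquid media freshly inoculated with each bacterial strain and shaken 5-6 h at 37° C. Growth read as absorbance at 595 nm; control cultures contained 0.1% acetonitrile.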

Compound	% inhibition of bacterial growth by peptide ([1]; 5 μM peptide) [%]	% inhibition of bacterial growth by peptide ([1]; 10 μM peptide) [%]	% inhibition of bacterial growth by peptide ([1]; 15 μM peptide) [%]	% inhibition of bacterial growth by peptide ([1]; 20 μM peptide) [%]	selectively inhibited growth of A. baumannii ATCC Accession No. 19606, Acinetobacter spp. ATCC 17903, Acinetobacter spp. ATCC 19004, and S. aureus [2]	selectively inhibited growth of S. aureus [2]	% inhibition of bacterial growth by peptide ([1]; 12.5 μM peptide) [%]	% inhibition of bacterial growth by peptide ([1]; 17.5 μM peptide) [%]	selectively inhibited growth of Acinetobacter spp. ATCC 19004 [2]
CC[C@H](C)[C@H](NC(=O)[C@H](CS)NC(=O)[C@H](CCCCN)NC(=O)[C@H](CC(C)C)NC(=O)[C@H](Cc1ccccc1)NC(=O)[C@H](CC(=O)O)NC(=O)[C@H](CC(C)C)NC(=O)[C@H](CCCNC(=N)N)NC(=O)[C@H](CC(N)=O)NC(=O)[C@H](Cc1ccccc1)NC(=O)CNC(=O)[C@@H](NC(=O)[C@@H](NC(=O)[C@H](Cc1c[nH]cn1)NC(=O)[C@H](CC(N)=O)NC(=O)[C@@H](NC(=O)[C@@H](NC(=O)[C@H](Cc1c[nH]cn1)NC(=O)[C@H](Cc1ccccc1)NC(=O)[C@H](CO)NC(=O)[C@@H](NC(=O)[C@@H](N)Cc1ccccc1)C(C)C)[C@@H](C)O)[C@@H](C)O)C(C)C)[C@@H](C)CC)C(=O)N[C@@H](CO)C(=O)O [Ac3] (H-FVSFHTTNHVIGFNRLDFLKCIS-OH; N-terminus and C-terminus assumed)	2	2	6	18	selectively inhibited growth	–	–	–	–
CSCC[C@H](NC(=O)[C@H](CCCCN)NC(=O)[C@H](CC(C)C)NC(=O)[C@H](CC(C)C)NC(=O)[C@H](Cc1ccccc1)NC(=O)[C@H](Cc1ccccc1)NC(=O)[C@@H](N)Cc1ccccc1)C(=O)N[C@@H](CC(N)=O)C(=O)N[C@@H](Cc1ccc(O)cc1)C(=O)N[C@@H](CC(N)=O)C(=O)N[C@@H](C)C(=O)N[C@H](C(=O)N[C@@H](Cc1c[nH]cn1)C(=O)N[C@@H](CC(C)C)C(=O)N[C@@H](C)C(=O)NCC(=O)N[C@@H](CCCNC(=N)N)C(=O)N[C@@H](CCC(=O)O)C(=O)N[C@@H](Cc1ccccc1)C(=O)O)[C@@H](C)O [Ac88] (H-FFFLLKMNYNATHLAGREF-OH; N-terminus and C-terminus assumed)	0	0	0	13	–	selectively inhibited growth	–	–	–
CC(C)C[C@H](NC(=O)[C@H](C)NC(=O)[C@H](CS)NC(=O)[C@H](CO)NC(=O)[C@H](C)NC(=O)[C@H](CO)NC(=O)[C@H](CCCNC(=N)N)NC(=O)CN)C(=O)N[C@@H](CCCNC(=N)N)C(=O)N[C@@H](Cc1c[nH]c2ccccc12)C(=O)N[C@@H](C)C(=O)NCC(=O)N1CCC[C@H]1C(=O)N[C@@H](CC(C)C)C(=O)N1CCC[C@H]1C(=O)N[C@@H](CCCCN)C(=O)NCC(=O)N[C@@H](CCCNC(=N)N)C(=O)NCC(=O)N[C@@H](CCCCN)C(=O)N[C@@H](Cc1c[nH]c2ccccc12)C(=O)N[C@@H](Cc1c[nH]c2ccccc12)C(=O)N[C@@H](CS)C(=O)O [Ac68] (H-GRSASCALRWAGPLPKGRGKWWC-OH; N-terminus and C-terminus assumed)	–	–	0	0	–	–	0	0	selectively inhibited growth
CC[C@H](C)[C@H](NC(=O)[C@H](Cc1ccccc1)NC(=O)[C@H](CCC(N)=O)NC(=O)[C@H](CO)NC(=O)[C@H](Cc1ccccc1)NC(=O)[C@H](Cc1c[nH]cn1)NC(=O)[C@H](CCCNC(=N)N)NC(=O)[C@H](Cc1c[nH]cn1)NC(=O)[C@@H](NC(=O)[C@H](CCCNC(=N)N)NC(=O)[C@H](CC(C)C)NC(=O)CNC(=O)[C@H](CC(C)C)NC(=O)[C@H](CC(=O)O)NC(=O)[C@H](CCCNC(=N)N)NC(=O)[C@@H](NC(=O)[C@H](CCC(N)=O)NC(=O)[C@H](CCCNC(=N)N)NC(=O)[C@@H](N)CCCNC(=N)N)C(C)C)C(C)C)C(=O)N[C@@H](CC(N)=O)C(=O)N[C@@H](CCCNC(=N)N)C(=O)N[C@@H](CO)C(=O)NCC(=O)O [Ac173] (H-RRQVRDLGLRVHRHFSQFINRSG-OH; N-terminus and C-terminus assumed)	–	–	0	0	–	–	0	0	selectively inhibited growth
